Legend:
[1] = system: citrullinated histone H3 (H3Cit), product of PADI4 activity; assay: Western blot for citrullinated histone H3 in conditioned medium of NSC reprogramming cultures; format: cell-based, mouse; conditions: conditioned medium from reprogramming cultures, similar total histone H3
Source text: FIG. 7: Citrullinated histones are found in culture medium conditioned by reprogramming cultures. Immunoblot analysis for total histone H3 (top) and two different citrullination marks on histone H3 (middle and bottom) on conditioned medium of NSC reprogramming cells cultured in the presence or absence or the PADI4 inhibitor CI-amidine. Data from two independent experiments are shown. Citrullinated histone H3 is readily detected in the conditioned medium and inhibited by CI-amidine.
Based on this finding, the conditioned medium of Example 4 was analysed for the presence of H3Cit by Western blot (FIG. 7). Citrullinated histone H3 (H3Cit) can be readily detected in the conditioned medium from reprogramming cultures (FIG. 7, middle and lower panels labelled “H3CitR2” and H3CitR8”, lanes labelled “-CI-am”), and this is reduced in conditioned medium from reprogramming cultures in which the PADI4 inhibitor CI-amidine has been added (FIG. 7, middle and lower panels labelled “H3CitR2” and H3CitR8”, lanes labelled “+CI-am”), despite similar levels of total histone H3 being present (FIG. 7, top panel labelled “H3”).

[2] = system: NSO4G neural stem cells; assay: Yamanaka factor-mediated reprogramming of NSO4G neural stem cells to iPSCs, flow cytometry of OCT4-GFP positive cells; format: cell-based, mouse; conditions: NSC reprogramming culture, end of reprogramming (day 15)
Source text: FIG. 1: Schematic of method of reprogramming of mouse neural stem cells into induced pluripotent stem (iPS) cells. The mouse neural stem cell (NSC) line NSO4G harbours the GFP transgene under the control of Oct4 regulatory elements. […] Upon reprogramming, iPSCs grow in colonies and express GFP, allowing their visualisation and isolation from the remaining, non-reprogrammed cells.
A-C) Yamanaka factor-mediated reprogramming of NSO4G neural stem cells. D) Yamanaka factor-mediated reprogramming of human fibroblasts. A) Schematic representation of the experimental design for data in panels B and C. B) Flow cytometry plots (left) and quantification data (right) for the number of GFP-positive cells at the end of reprogramming, in the presence of PADI4 or control shRNAs. C) Flow cytometry plots (left) and quantification data (right) for the number of GFP-positive cells at the end of reprogramming, in the presence of CI-amidine or vehicle control. D) Quantification of iPS colonies, as a measure of the degree of reprogramming, after Yamanaka factor-mediated reprogramming of human fibroblasts, in the presence of two independent PADI4 inhibitors (CI-amidine or GSK484) or vehicle controls. […]
To investigate the timing of PADI4 expression during reprogramming, the method of reprogramming neural stem cells (NSCs) to iPSCs described in Theunissen et al. (2011) Current Biology, 21(1): 65-71 (doi: https://doi.org/10.1016/j.cub.2010.11.074) was used (FIG. 1). […] At various reprogramming timepoints, the reprogramming cells were harvested and the levels of mRNA encoding PADI4 and NANOG were quantified by qPCR (FIG. 2A) and protein levels (FIG. 2B). […]
Medium was conditioned by culture on NSC reprogramming cultures (FIG. 5A, “Conditioned medium”, bottom panel) or by incubated in empty plates lacking cells under the same conditions (FIG. 5A, “Control medium”, top panel) and added to new reprogramming (receiving) cultures after every 24 h. Reprogramming efficiency of the receiving cultures was assessed by flow cytometry based GFP quantification at the end of the reprogramming assay (day 15). […]

[3] = system: human fibroblasts; assay: Yamanaka factor-mediated reprogramming of human fibroblasts, iPS colony count; format: cell-based; conditions: human fibroblast reprogramming culture without OCT4-GFP reporter, vs vehicle control
Source text: A-C) Yamanaka factor-mediated reprogramming of NSO4G neural stem cells. D) Yamanaka factor-mediated reprogramming of human fibroblasts. A) Schematic representation of the experimental design for data in panels B and C. B) Flow cytometry plots (left) and quantification data (right) for the number of GFP-positive cells at the end of reprogramming, in the presence of PADI4 or control shRNAs. C) Flow cytometry plots (left) and quantification data (right) for the number of GFP-positive cells at the end of reprogramming, in the presence of CI-amidine or vehicle control. D) Quantification of iPS colonies, as a measure of the degree of reprogramming, after Yamanaka factor-mediated reprogramming of human fibroblasts, in the presence of two independent PADI4 inhibitors (CI-amidine or GSK484) or vehicle controls. The inhibitors were administered throughout the course of reprogramming.
FIG. 10: Inhibition of extracellular chromatin component-sensing pathways inhibits reprogramming. A) Schematic representation of the extra-nuclear DNA sensing pathway cGAS/STING (left panel). Flow cytometry-based quantification of GFP-positive cells at the end of NSC reprogramming (day 15), in the presence of STING inhibitor H-151, vehicle control (DMSO) or no treatment (right panel). B) Schematic representation of the signalling pathway downstream of the Damage Associated Molecular Pattern (DAMP)-sensing Toll-Like Receptor 2 (TLR2; left panel). Flow cytometry-based quantification of GFP-positive cells at the end of NSC reprogramming (day 15), in the presence of TLR2 inhibitor MMG-11, vehicle control (DMSO) or no treatment (right panel). C) Colony count data for quantification of reprogramming of human fibroblast cells at the end of reprogramming (day 40) after treatment with STING inhibitor H-151 (left panel), TLR2 inhibitor MMG-11 (right panel) or vehicle control (DMSO).

SMILES | citrullinated histone H3 (H3CitR2, H3CitR8) detected in conditioned medium [1] | proportion of OCT4-GFP positive cells (reprogramming cells) at the end of reprogramming [2] | number of colonies (successfully reprogrammed cells) [3]
NC(=O)[C@H](CCCN=C(N)CCl)NC(=O)c1ccccc1 [CI-amidine] | reduced | The same result is achieved | significantly reduced
COc1cc(C(=O)N2CC[C@@H](O)[C@@H](N)C2)cc2nc(-c3cc4ccccc4n3CC3CC3)n(C)c12 [GSK484] |  |  | significantly reduced
CCc1ccc(NC(=O)Nc2c[nH]c3ccccc23)cc1 [H-151] |  | significantly reduced | significantly reduced number of colonies
CCOC(=O)c1ccc(CC(=O)c2ccc(O)c(O)c2O)o1 [MMG-11] |  | significantly reduced | significantly reduced number of colonies

From US20260250639A1, “REPROGRAMMING METHOD” (Babraham Institute, priority 2022, published 2026)
